Experimental findings from patent US7956196B2, “1,3-dihydro-benzimidazol-2-ylidene amines as inhibitors of respiratory syncytial virus replication” (Tibotec Pharmaceuticals Ltd., priority 2005, dated 2011) are described below.

The structures appear in SMILES notation. Where a name gives a salt, the structure may show the parent alone. Read-outs that look alike come from different tables or passages of the source. A value given as a limit tells only on which side of the number the result lay.

For data set [1], the system named is Respiratory Syncytial Virus. The data set is described as follows: In vitro screening for activity against RSV, automated tetrazolium-based (MTT) colorimetric assay in HeLa cells. In kind it is cell-based. The conditions noted are these: human respiratory syncytial virus, 168 h, read-out: pIC50 (converted). From the text:
In vitro screening of compounds of formula (I) for activity against RSV. The percent protection against cytopathology caused by viruses (antiviral activity or EC50) achieved by tested compounds and their cytotoxicity (CC50) are both calculated from dose-response curves. The selectivity of the antiviral effect is represented by the selectivity index (SI), calculated by dividing the CC50 (cytotoxic dose for 50% of the cells) by the EC50 (antiviral activity for 50% of the cells). The tables in the above experimental part list the category to which each of the prepared compounds belong: Compounds belonging to activity category “A” have a pEC50 (-log of EC50 when expressed in molar units) equal to or more than 7. Compounds belonging to activity category “B” have a pEC50 value between 6 and 7.
Automated tetrazolium-based colorimetric assays were used for determination of EC50 and CC50 of test compounds. Flat-bottom, 96-well plastic microtiter trays were filled with 180 μl of Eagle's Basal Medium, supplemented with 5% FCS (0% for FLU) and 20 mM Hepes buffer. Subsequently, stock solutions (7.8×final test concentration) of compounds were added in 45 μl volumes to a series of triplicate wells so as to allow simultaneous evaluation of their effects on virus- and mock-infected cells. Five five-fold dilutions were made directly in the microtiter trays using a robot system. Untreated virus controls, and HeLa cell controls were included in each test. Approximately 100 TCID50 of Respiratory Syncytial Virus was added to two of the three rows in a volume of 50 μl. The same volume of medium was added to the third row to measure the cytotoxicity of the compounds at the same concentrations as those used to measure the antiviral activity. After two hours of incubation, a suspension (4×10^5 cells/ml) of HeLa cells was added to all wells in a volume of 50 μl. The cultures were incubated at 37° C. in a 5% CO2 atmosphere. Seven days after infection the cytotoxicity and the antiviral activity was examined spectrophotometrically. To each well of the microtiter tray, 25 μl of a solution of MTT (3-(4,5-dimethylthiazol-2-yl)-2,5-diphenyltetrazolium bromide) was added. The trays were further incubated at 37° C. for 2 hours, after which the medium was removed from each cup. Solubilization of the formazan crystals was achieved by adding 100 μl 2-propanol. Complete dissolution of the formazan crystals were obtained after the trays have been placed on a plate shaker for 10 min. Finally, the absorbances were read in an eight-channel computer-controlled photometer (Multiskan MCC, Flow Laboratories) at two wavelengths (540 and 690 nm). The absorbance measured at 690 nm was automatically subtracted from the absorbance at 540 nm, so as to eliminate the effects of non-specific absorption.
The percent protection against cytopathology caused by viruses (antiviral activity or EC50) achieved by tested compounds and their cytotoxicity (CC50) were both calculated from dose-response curves. The selectivity of the antiviral effect is represented by the selectivity index (SI), calculated by dividing the CC50 (cytotoxic dose for 50% of the cells) by the EC50 (antiviral activity for 50% of the cells).

Setting [2] is: protection against RSV cytopathology in HeLa cells, MTT readout seven days after infection.

With `COc1ccc(CCN=c2n(Cc3cccc(Cl)c3)c3ccccc3n2Cc2cccc3cccnc23)cc1` [Compound 49], in data set [1] (setting [2]), the IC50 was 251 nM. Same read-out and setting: the same measure for `N#Cc1ccc(CN=c2n(Cc3ccc(C#N)cc3)c3ccccc3n2Cc2cccc3cccnc23)cc1` [Compound 2]: 10 nM. Regarding `N#Cc1ccc(Cn2c(=NC(=O)c3ccc(Br)cc3)n(Cc3cccc4cccnc34)c3ccccc32)cc1` [Compound 26], the melting point (commonly the temperature, or range, at which the solid turns liquid) stood at 125 °C. The IC50 in data set [1] (setting [2]) was 10000 nM. `COc1ccc(CCN=c2n(Cc3ccc(C)cc3)c3ccccc3n2Cc2cccc3cccnc23)cc1` [Compound 42]: the IC50 in data set [1] (HeLa) is 79.4 nM. `N#Cc1ccc(Cn2c(=NCCCN3CCOCC3)n(Cc3cccc4cccnc34)c3ccccc32)cc1` [Compound 13]: the melting point amounted to 80 °C. The IC50 in data set [1] (setting [2]) was 126 nM. Regarding `COC(=O)c1ccc(Cn2c(=NCCc3ccc(Br)cc3)n(Cc3cccc4cccnc34)c3ccccc32)cc1` [Compound 35], in data set [1] (setting [2]), the IC50 was 7.94 nM. With `COC(=O)c1ccc(Cn2c(=NC(=O)c3ccc(Br)cc3)n(Cc3cccc4cccnc34)c3ccccc32)cc1` [Compound 40], the melting point was found to be 131 °C. Besides, the IC50 in data set [1] (setting [2]) is more than 100000 nM.

With `COC(=O)c1ccc(Cn2c(=NCCC(c3ccccc3)c3ccccc3)n(Cc3cccc4cccnc34)c3ccccc32)cc1` [Compound 38], the melting point came to 146 °C. Also, the IC50 in data set [1] (setting [2]) was 158 nM. The matching figures for `COc1ccc(Cn2c(=NCCc3ccc(Br)cc3)n(Cc3cccc4cccnc34)c3ccccc32)cc1` [Compound 44]: 87 °C and 79.4 nM. Regarding `CCOc1ccc(CCn2c(=NCCc3ccc(Br)cc3)n(Cc3cccc4cccnc34)c3ccccc32)cc1` [Compound 51], the IC50 in data set [1] (setting [2]) was 501 nM. `Cc1cccc(C(=O)N=c2n(Cc3ccc(C#N)cc3)c3ccccc3n2Cc2cccc3cccnc23)c1` [Compound 20] returned a melting point of 158 °C. In addition, the IC50 in data set [1] (setting [2]) is 398 nM.

`COc1ccc(C(=O)N=c2n(Cc3ccc(C#N)cc3)c3ccccc3n2Cc2cccc3cccnc23)cc1` [Compound 27] displayed a melting point of 150 °C. Moreover, in data set [1] (HeLa), the IC50 was 20000 nM. Take `N#Cc1ccc(Cn2c(=NCCc3ccc(Br)cc3)n(Cc3cccc4cccnc34)c3ccccc32)cc1` [Compound 6]: the IC50 in data set [1] (setting [2]) was 31.6 nM.

Regarding `COc1ccc(C(=O)Cn2c(=NCCc3ccc(Br)cc3)n(Cc3cccc4cccnc34)c3ccccc32)cc1` [Compound 50], the melting point came out at 152 °C. In addition, the IC50 in data set [1] (setting [2]) was 316 nM. On to `COc1ccc(CCN=c2n(Cc3ccc(Br)cc3)c3ccccc3n2Cc2cccc3cccnc23)cc1` [Compound 45], for which the IC50 in data set [1] (setting [2]) is 100 nM. On the same count and under the same terms, the same measure for `N#Cc1ccc(Cn2c(=NCCc3ccccc3)n(Cc3cccc4cccnc34)c3ccccc32)cc1` [Compound 25]: 2000 nM. `N#Cc1ccc(Cn2c(=NC(=O)c3cccc([N+](=O)[O-])c3)n(Cc3cccc4cccnc34)c3ccccc32)cc1` [Compound 22] returned a melting point of 222 °C. Also, the IC50 in data set [1] (setting [2]) was 631 nM. In the same order, the values of `N#Cc1ccc(Cn2c(=NC(=O)c3ccc(C#N)cc3)n(Cc3cccc4cccnc34)c3ccccc32)cc1` [Compound 31] are 182 °C and more than 100000 nM. In the same order, the values of `N#Cc1ccc(Cn2c(=NCCc3cccc(F)c3)n(Cc3cccc4cccnc34)c3ccccc32)cc1` [Compound 8] are 102 °C and 50.1 nM. Consider `COC(=O)c1ccc(CN=c2n(Cc3ccc(C#N)cc3)c3ccccc3n2Cc2cccc3cccnc23)cc1` [Compound 5], for which the IC50 in data set [1] (setting [2]) was 15.8 nM. In turn, `Cc1ccc(CCCO)c(NCc2ccc3c(c2)n(Cc2nc(C)ccc2O)c(=N)n3C)c1` [Compound 58] yielded a melting point of 195 °C. Further, the IC50 in data set [1] (setting [2]) is 3.16 nM.

Compound `Cc1ccc(O)c(Cn2c(=NC3CCN(CCN)CC3)n(Cc3ccc(C#N)cc3)c3ccccc32)n1` [Compound 55] yielded a melting point of 212 °C. The IC50 in data set [1] (setting [2]) is 63.1 nM. For `N#Cc1ccc(Cn2c(=NCc3cccc(C#N)c3)n(Cc3cccc4cccnc34)c3ccccc32)cc1` [Compound 10], the IC50 in data set [1] (setting [2]) was 63.1 nM. As for `N#Cc1ccc(Cn2c(=NC(=O)c3ccc(Oc4ccccc4)cc3)n(Cc3cccc4cccnc34)c3ccccc32)cc1` [Compound 33], the melting point is 66 °C. For the same compound, in data set [1] (setting [2]), the IC50 was 100000 nM. The matching figures for `N#Cc1ccc(Cn2c(=NCCC(c3ccccc3)c3ccccc3)n(Cc3cccc4cccnc34)c3ccccc32)cc1` [Compound 18]: 184 °C and 316 nM. Take `O=C(Cn1c(=NCCc2ccc(Br)cc2)n(Cc2cccc3cccnc23)c2ccccc21)c1ccc(Br)cc1` [Compound 52]: the melting point was 120 °C. Further, the IC50 in data set [1] (HeLa) was 631 nM. In the case of `COC(=O)c1cccc(Cn2c(=NCCc3ccc(Br)cc3)n(Cc3cccc4cccnc34)c3ccccc32)c1` [Compound 43], the melting point worked out at 80 °C. In addition, in data set [1] (setting [2]), the IC50 is 79.4 nM. The matching figures for `N#Cc1ccc(Cn2c(=NC(=O)c3cc(C(F)(F)F)cc(C(F)(F)F)c3)n(Cc3cccc4cccnc34)c3ccccc32)cc1` [Compound 24]: 190 °C and 794 nM. In the same order, the values of `N#Cc1ccc(Cn2c(=NC(=O)c3ccc(Cl)cc3)n(Cc3cccc4cccnc34)c3ccccc32)cc1` [Compound 21] are 154 °C and 398 nM. On to `CCOc1ccc(CCn2c(=NCCc3ccc(OC)cc3)n(Cc3cccc4cccnc34)c3ccccc32)cc1` [Compound 48], for which the IC50 in data set [1] (setting [2]) is 200 nM. On the same count and under the same terms, the same measure for `COC(=O)c1ccc(Cn2c(=NCCCN3CCOCC3)n(Cc3cccc4cccnc34)c3ccccc32)cc1` [Compound 37]: 126 nM. `COC(=O)c1ccc(Cn2c(=NCCc3cccc(F)c3)n(Cc3cccc4cccnc34)c3ccccc32)cc1` [Compound 36] had a melting point of 89 °C. For the same compound, the IC50 in data set [1] (setting [2]) is 79.4 nM.

With `N#Cc1ccc(Cn2c(=NCCCN3CCOCC3)n(Cc3ccc4ccccc4n3)c3ccccc32)cc1` [Compound 56], the IC50 in data set [1] (setting [2]) is 200 nM. Compound `N#Cc1ccc(Cn2c(=NC(=O)c3ccc([N+](=O)[O-])cc3)n(Cc3cccc4cccnc34)c3ccccc32)cc1` [Compound 28] had a melting point of 196 °C. For the same compound, the IC50 in data set [1] (setting [2]) was 31600 nM. Compound `COC(=O)c1ccc(Cn2c(=NCCc3ccc(Br)cc3)n(Cc3cccc4cccnc34)c3ccccc32)cc1` (as salt: HCl) [Compound 35] returned a melting point of 128 °C. In the case of `Cc1ccc(O)c(Cn2c(=NCCc3ccc(Br)cc3)n(Cc3ccc(C#N)cc3)c3ccccc32)n1` [Compound 57], the melting point stood at 204 °C. Also, the IC50 in data set [1] (setting [2]) was 251 nM. In the same order, the values of `N#Cc1ccc(Cn2c(=NC(=O)c3ccc(-c4ccccc4)cc3)n(Cc3cccc4cccnc34)c3ccccc32)cc1` [Compound 29] are 100 °C and 39800 nM. Take `N#Cc1ccc(Cn2c(=NCCc3ccc(OCCO)cc3)n(Cc3cccc4cccnc34)c3ccccc32)cc1` [Compound 1]: the IC50 in data set [1] (setting [2]) was 6.31 nM. Regarding `Cc1cc(C)cc(CN=c2n(Cc3ccc(C#N)cc3)c3ccccc3n2Cc2cccc3cccnc23)c1` [Compound 16], the melting point was determined as 142 °C. Moreover, the IC50 in data set [1] (HeLa) is 251 nM. On to `COc1ccc(CCN=c2n(Cc3ccc(OC)cc3)c3ccccc3n2Cc2cccc3cccnc23)cc1` [Compound 41], for which, in data set [1] (setting [2]), the IC50 was 63.1 nM. As to `COc1ccccc1CCN=c1n(Cc2ccc(C#N)cc2)c2ccccc2n1Cc1cccc2cccnc12` [Compound 14], the IC50 in data set [1] (setting [2]) is 158 nM. On the same count and under the same terms, to `N#Cc1ccc(C(=O)Cn2c(=NCCc3ccc(Br)cc3)n(Cc3cccc4cccnc34)c3ccccc32)cc1` [Compound 53] belongs 2510 nM; to `N#Cc1ccc(Cn2c(=NCCc3ccc(F)cc3)n(Cc3cccc4cccnc34)c3ccccc32)cc1` [Compound 11], 79.4 nM; to `N#Cc1ccc(Cn2c(=NCCCN3CCCC3=O)n(Cc3cccc4cccnc34)c3ccccc32)cc1` [Compound 15], 200 nM. For the compound `COc1ccc(CCN=c2n(Cc3ccc(F)cc3)c3ccccc3n2Cc2cccc3cccnc23)cc1` [Compound 47], the IC50 in data set [1] (setting [2]) was 158 nM.
